From patent US6623933B1 (priority 1999, dated 2003)
“And” between values parts separate entries of the source, which are not always exact repeats. Equal values may be shown once. Where a name gives a salt, the structure may show the parent alone. Read-outs that look alike come from different tables or passages of the source.

Tests used:
GluR3 AMPA receptor = target: T1, GluR3 AMPA receptor (Rattus norvegicus, UniProt P19492); assay: Kainate-induced currents, Xenopus oocytes injected with GluR3 cRNA; assay type: cell-based
T1 construct: expressed in transfected cells; host or cells: Xenopus oocytes injected with GluR3 cRNA
Description: Plasmids were obtained from the following individuals: Dr. Suzanne Zukin (Albert Einstein College of Medicine, Bronx, N.Y.), NR1100; Dr. Shigetada Nakanishi (Kyoto University Faculty of Medicine, Kyoto, Japan), NR2A; Dr. Stephen Heinemann (Salk Institute, San Diego, Calif.), GluR1 (flop), GluR3 (flop), and GluR6. Plasmids were linearized with BamH1 (NR1100), XhoI (NR2A, GluR1, GluR3) or XbaI (GluR6) prior to in vitro transcription with T3 (GluR1, GluR3, GluR6) or T7 (NR1100, NR2A) RNA polymerase using the Message Machine kit (Ambion, Austin, Tex.). […] RNA solutions (50-70 nl) were injected into oocytes for delivery of NR1100 (5 ng), NR1100:NR2A (1:10 ng), GluR1 (5 ng). GluR3 (5 ng), or GluR6 (20 ng). Oocytes were incubated in ND96 at 18-20° C. for 3-7 days prior to electrophysiological recording.
Steroid solutions were prepared as 70-100 mM frozen stocks in dimethyl sulfoxide (DMSO). The final DMSO concentration of all recording solutions was between 0.1% to 0.5% and was constant within an experiment.
Perfusion control and data acquisition were carried out using an automated oocyte electrophysiology workstation that was developed for the rapid collection of concentration-response data and real-time waveform analysis (Yaghoubi et al., Soc. Neurosci. Abstr. 20: 1109 (1995)). This system is implemented on a Macintosh IIci computer (Apple Computer, Cupertino, Calif.) equipped with MacA-DIOS II data acquisition and control hardware (GW Instruments, Somerville, Mass.). Drug application is controlled by the computer through a series of valves, using custom-written software based on the SuperScope II development environment, improving the efficiency and reproducibility of data collection. Experiments were carried out using an Axoclamp-2A voltage clamp amplifier (Axon Instruments, Foster City, Calif.) in two-electrode voltage clamp mode. Intracellular microelectrodes (1-3 MΩ) were filled with 3 M KCl. […] Membrane potential was clamped at −60 to −70 mV and stepped to −100 mV at the start of data acquisition unless otherwise stated. […] Current and voltage recordings were digitized at 100 Hz for analysis. GluR6 injected oocytes were treated for 10 min with 10 μg/ml concanavalin A to prevent fast desensitization.
Results are expressed as mean±S.E.M. Statistical comparisons were made using Student's t-test.

NR1/NR2A (NR1100) = NR1/NR2A (NR1100) (Rattus norvegicus, UniProt P35439+Q00959); assay: cell-based
Description: (§4) Plasmids containing the NR1100 (NR1G) and NR2A cDNA inserts were kindly provided by Dr. Nakanishi (Kyoto University Faculty of Medicine, Kyoto, Japan). Plasmids containing the NR2B, NR2C and NR2D cDNA inserts were kindly provided by Dr. P. Seeburg (Heidelberg University, Heidelberg, Germany). Plasmids were linearized with appropriate restriction enzyme prior to in vitro transcription using the Message Machine kit (Ambion, Inc., Austin, Tex.).
(§5) Female, oocyte-positive Xenopus laevis frogs were purchased from Xenopus I (Dexter, Mich.). […] Oocytes were injected with 50 nL of RNA solutions using an electronic microinjector (Drummond Inc., Broomall, Pa.). […] The injected oocytes were used for experiments following 1-5 days of incubation in Barth's solution at 18-20° C.
(§6) The microelectrodes were fabricated from borosilicate glass capillaries with a programmed puller (Sutter Instrument Co., Calif.). Microelectrode resistance was 1-3 MΩ_when filled with 3 M KCl.
(§7) Except where otherwise stated, oocytes were clamped at a holding potential of −70 mV during data acquisition. The membrane current was filtered at 500 Hz and sampled at 100 Hz. Drugs were applied using a gravity-driven external perfusion system. The working volume of the recording chamber was 30 μl and the rate of the perfusion was 50 μl/sec. The drug application lasted 10 sec and was followed by 60 s wash. Data acquisition and external perfusion were controlled using custom-written software implemented in the SuperScope II development environment (GW Instruments, Mass.). All experiments were performed at room temperature of 22-24° C. Peak or steady-state current measurements were normalized and expressed as a fraction of the peak or steady-state control current measurements, which were performed before and after application of every single concentration of agonists or steroids.
(§8) Concentration-response data were analyzed by nonlinear regress ion using the logistic equation Response=Emax/(1+(EC50/c)^nH), where c is concentration, Emaxis the maximum response, nHis the Hill coefficient. The data are presented as mean±SEM. EC50values are averaged as logarithms (De Lean et al., Am. J. Physiol. 235: E97-E102 (1978))±the SEM of the log EC50. […] The pooled data were simultaneously fitted to the logistic equation, either with Emax and EC50 constrained to be identical in the presence and absence of PS, or allowing one or both to vary independently. […] This was regarded as indicating a significant treatment effect of PS, but the change in EC50and Emaxwas not considered significant. […] No attempt was made to test the generally small changes in nHfor statistical significance.

NR1/NR2D (NR1100) = NR1/NR2D (NR1100) (Rattus norvegicus, UniProt P35439+Q62645); assay: cell-based
Description: as §4, §5, §6, §7, §8

NR1011/NR2B = target: T2, NR1011/NR2B (Rattus norvegicus, UniProt P35439+Q00960); assay: NMDA receptor currents in Ba-Ringer, Xenopus oocytes, Example 3; assay type: cell-based
T2 construct: expressed in transfected cells; host or cells: Xenopus oocytes

NR1100/NR2B = target: T3, NR1100/NR2B (Rattus norvegicus, UniProt P35439+Q00960); assay: as above; assay type: cell-based
T3 construct: expressed in transfected cells; host or cells: Xenopus oocytes injected with RNA

NR1100/NR2A = assay: NMDA-induced currents of NR1 splice variants, Xenopus oocytes, Example 4; assay type: cell-based; details: 100 μM PS
Experimental: (§1) Overnight cultures (500 ml) of transformed bacterial cells were prepared in order to grow sufficient quantities for maxiprep isolation of the plasmid CDNA. Maxipreps were done using a Sorvall RC-5B ultracentrifuge, Qiagen columns and cDNA was quantitated with spectrophotometry (OD260 and OD260/ OD280 ratio). The resulting plasmid cDNA was linearized by digestion with an appropriate restriction enzyme that cleaves distal to the cDNA insert (XhoI for NR2A or NotI for NR1100, NR1000, NR1111, NR1011, NR1101, NR1001). […] The samples were stored at −20° C. until use.
(§2) In vitro transcription was performed using the Ambion mMessage mMachine kit with T7 (NR1100, NR1000, NR1111, NR1011, NR1101, NR1001) RNA polymerase. The reaction was assembled on ice and allowed to incubate at 37° C. for 1-2 hr. The resulting mRNA was precipitated (reaction termination) using lithium chloride/5 mM EDTA solution and dissolved in RNase-free H2O. The concentration (OD260) and OD260/OD280 ratio (should be more than 1.5) was determined by spectrophotometer. The yield of mRNA was generally 15-30 μg. mRNA was stored at −80° C. until use.
(§3) Intracellular recording microelectrodes were fabricated from 100 μl borosilicate glass disposable micropipettes using a 2-step protocol on a standard horizontal Flaming-Brown micropipette puller.

NR1/NR2A = target: T4, NR1/NR2A (Rattus norvegicus, UniProt P35439+Q00959); assay: NMDA-induced membrane currents, Xenopus oocytes, Example 7; assay type: cell-based
T4 construct: expressed in transfected cells; host or cells: Xenopus oocytes injected with mRNA
Experimental: (§9) Plasmids were linearized with appropriate restriction enzyme prior to in vitro transcription using the Message Machine kit (Ambion, Inc., Austin, Tex.).
(§10) Oocytes were injected with 50 nL of RNA solutions using an electronic microinjector (Drummond Inc., Broomall, Pa.). […] The injected oocytes were used for experiments following 1-5 days of incubation in Barth's solution at 18-20° C.
(§11) The microelectrodes were fabricated with a programmed puller (Sutter Instrument Co., Calif.) from borosilicate glass capillaries and were filled with 3 M KCl solution. The resistance of filled microelectrodes was in the range of 1-3 MΩ. […] If not mentioned otherwise, during data acquisition oocytes were clamped at a holding potential of −70 mV. The membrane current was filtered at 500 Hz and sampled at 100 Hz. Drugs were applied using a gravity driven external perfusion system. The working ,volume of the recording chamber was 30 μl and the rate of the perfusion was 50 μl/sec. The drug application lasted 10 sec and was followed by a 60 sec wash. The data acquisition and external perfusion control were done using the SuperScopeII software package (GW Instruments, Mass.). […] Peak or steady-state current measurements were normalized and expressed as a fraction of the peak or steady-state control current measurements, which were performed before and after application of every single consentration of agonist or steroid. […]

NR1/NR2D = target: T5, NR1/NR2D (Rattus norvegicus, UniProt P35439+Q62645); assay: as above; assay type: cell-based
T5 construct: expressed in transfected cells; host or cells: Xenopus oocytes injected with mRNA
Experimental: as §9, §10, §11

NR1001/NR2A = NR1001/NR2A (Rattus norvegicus, UniProt P35439+Q00959); assay: NMDA-induced currents of NR1 splice variants, Xenopus oocytes, Example 4; assay type: cell-based; set-up: expressed in transfected cells; host or cells: Xenopus oocytes injected with NR1001 and NR2A mRNA; details: NR1001/2A; 100 μM PS; 200 μM NMDA+10 μM glycine
Experimental: as §1, §2, §3

[1] = read-out: 3α5βS Emax (% Change)

T1 sequence (P19492 23-888): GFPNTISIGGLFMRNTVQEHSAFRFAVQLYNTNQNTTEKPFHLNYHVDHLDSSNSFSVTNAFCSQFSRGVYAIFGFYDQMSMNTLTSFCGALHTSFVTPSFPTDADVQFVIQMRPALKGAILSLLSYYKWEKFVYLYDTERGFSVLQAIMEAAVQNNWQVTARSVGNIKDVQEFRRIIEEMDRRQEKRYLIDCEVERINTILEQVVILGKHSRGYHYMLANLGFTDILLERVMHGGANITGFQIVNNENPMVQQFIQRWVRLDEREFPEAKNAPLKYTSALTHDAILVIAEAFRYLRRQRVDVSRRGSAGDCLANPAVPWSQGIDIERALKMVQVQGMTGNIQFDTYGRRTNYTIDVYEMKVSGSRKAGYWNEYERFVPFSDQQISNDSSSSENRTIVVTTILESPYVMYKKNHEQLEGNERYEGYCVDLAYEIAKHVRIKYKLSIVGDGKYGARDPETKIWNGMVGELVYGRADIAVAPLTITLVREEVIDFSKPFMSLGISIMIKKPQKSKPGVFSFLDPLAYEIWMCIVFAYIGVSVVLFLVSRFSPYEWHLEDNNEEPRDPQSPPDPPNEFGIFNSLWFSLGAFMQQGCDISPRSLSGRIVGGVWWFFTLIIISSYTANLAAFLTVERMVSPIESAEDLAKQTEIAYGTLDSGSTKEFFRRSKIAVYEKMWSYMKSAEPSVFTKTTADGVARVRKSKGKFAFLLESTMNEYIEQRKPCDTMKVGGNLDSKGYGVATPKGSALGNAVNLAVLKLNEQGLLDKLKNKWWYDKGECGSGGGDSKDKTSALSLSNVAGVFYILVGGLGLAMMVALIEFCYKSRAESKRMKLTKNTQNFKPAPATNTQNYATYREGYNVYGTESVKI
T3 sequence (Q00960 27-1482, other chains not shown): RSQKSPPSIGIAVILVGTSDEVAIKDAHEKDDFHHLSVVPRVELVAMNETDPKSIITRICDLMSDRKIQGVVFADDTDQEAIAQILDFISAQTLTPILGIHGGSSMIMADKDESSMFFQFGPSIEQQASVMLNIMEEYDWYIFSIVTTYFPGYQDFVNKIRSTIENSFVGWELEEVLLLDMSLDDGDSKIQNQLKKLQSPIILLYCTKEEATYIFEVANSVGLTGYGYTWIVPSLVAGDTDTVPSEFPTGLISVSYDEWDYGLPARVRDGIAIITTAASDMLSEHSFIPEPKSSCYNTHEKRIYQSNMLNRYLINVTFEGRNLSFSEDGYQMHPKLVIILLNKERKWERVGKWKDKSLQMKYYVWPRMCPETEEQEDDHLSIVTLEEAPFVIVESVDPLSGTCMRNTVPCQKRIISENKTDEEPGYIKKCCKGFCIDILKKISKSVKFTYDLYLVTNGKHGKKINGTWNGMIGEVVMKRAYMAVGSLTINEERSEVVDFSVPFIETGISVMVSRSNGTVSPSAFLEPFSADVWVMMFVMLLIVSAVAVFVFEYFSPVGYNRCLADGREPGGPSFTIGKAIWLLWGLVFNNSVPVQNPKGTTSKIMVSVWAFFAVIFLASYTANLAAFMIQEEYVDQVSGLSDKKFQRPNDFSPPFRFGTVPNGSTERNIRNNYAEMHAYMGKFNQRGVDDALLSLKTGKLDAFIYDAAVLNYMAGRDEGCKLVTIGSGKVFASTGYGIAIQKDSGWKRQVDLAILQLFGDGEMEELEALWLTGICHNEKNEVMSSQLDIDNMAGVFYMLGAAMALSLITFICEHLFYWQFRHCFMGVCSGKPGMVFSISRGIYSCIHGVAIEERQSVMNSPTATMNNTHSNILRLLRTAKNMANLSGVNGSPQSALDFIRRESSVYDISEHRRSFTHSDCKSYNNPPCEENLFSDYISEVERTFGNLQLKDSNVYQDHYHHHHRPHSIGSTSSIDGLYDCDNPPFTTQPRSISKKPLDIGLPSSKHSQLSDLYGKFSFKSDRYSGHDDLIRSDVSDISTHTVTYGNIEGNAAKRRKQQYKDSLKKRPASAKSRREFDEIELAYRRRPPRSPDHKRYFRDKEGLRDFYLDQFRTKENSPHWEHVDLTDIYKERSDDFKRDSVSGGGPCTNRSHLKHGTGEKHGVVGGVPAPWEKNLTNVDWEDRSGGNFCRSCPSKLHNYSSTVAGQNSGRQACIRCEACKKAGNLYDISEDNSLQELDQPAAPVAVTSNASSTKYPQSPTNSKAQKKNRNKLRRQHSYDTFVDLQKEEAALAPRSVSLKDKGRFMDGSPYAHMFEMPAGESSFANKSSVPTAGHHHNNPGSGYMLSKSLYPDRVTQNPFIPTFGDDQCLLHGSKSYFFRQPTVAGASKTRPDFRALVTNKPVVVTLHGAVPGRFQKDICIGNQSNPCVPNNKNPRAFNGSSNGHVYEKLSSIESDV
T2 sequence (Q00960 27-1482, other chains not shown): as above
T5 sequence (Q62645 28-1323, other chains not shown): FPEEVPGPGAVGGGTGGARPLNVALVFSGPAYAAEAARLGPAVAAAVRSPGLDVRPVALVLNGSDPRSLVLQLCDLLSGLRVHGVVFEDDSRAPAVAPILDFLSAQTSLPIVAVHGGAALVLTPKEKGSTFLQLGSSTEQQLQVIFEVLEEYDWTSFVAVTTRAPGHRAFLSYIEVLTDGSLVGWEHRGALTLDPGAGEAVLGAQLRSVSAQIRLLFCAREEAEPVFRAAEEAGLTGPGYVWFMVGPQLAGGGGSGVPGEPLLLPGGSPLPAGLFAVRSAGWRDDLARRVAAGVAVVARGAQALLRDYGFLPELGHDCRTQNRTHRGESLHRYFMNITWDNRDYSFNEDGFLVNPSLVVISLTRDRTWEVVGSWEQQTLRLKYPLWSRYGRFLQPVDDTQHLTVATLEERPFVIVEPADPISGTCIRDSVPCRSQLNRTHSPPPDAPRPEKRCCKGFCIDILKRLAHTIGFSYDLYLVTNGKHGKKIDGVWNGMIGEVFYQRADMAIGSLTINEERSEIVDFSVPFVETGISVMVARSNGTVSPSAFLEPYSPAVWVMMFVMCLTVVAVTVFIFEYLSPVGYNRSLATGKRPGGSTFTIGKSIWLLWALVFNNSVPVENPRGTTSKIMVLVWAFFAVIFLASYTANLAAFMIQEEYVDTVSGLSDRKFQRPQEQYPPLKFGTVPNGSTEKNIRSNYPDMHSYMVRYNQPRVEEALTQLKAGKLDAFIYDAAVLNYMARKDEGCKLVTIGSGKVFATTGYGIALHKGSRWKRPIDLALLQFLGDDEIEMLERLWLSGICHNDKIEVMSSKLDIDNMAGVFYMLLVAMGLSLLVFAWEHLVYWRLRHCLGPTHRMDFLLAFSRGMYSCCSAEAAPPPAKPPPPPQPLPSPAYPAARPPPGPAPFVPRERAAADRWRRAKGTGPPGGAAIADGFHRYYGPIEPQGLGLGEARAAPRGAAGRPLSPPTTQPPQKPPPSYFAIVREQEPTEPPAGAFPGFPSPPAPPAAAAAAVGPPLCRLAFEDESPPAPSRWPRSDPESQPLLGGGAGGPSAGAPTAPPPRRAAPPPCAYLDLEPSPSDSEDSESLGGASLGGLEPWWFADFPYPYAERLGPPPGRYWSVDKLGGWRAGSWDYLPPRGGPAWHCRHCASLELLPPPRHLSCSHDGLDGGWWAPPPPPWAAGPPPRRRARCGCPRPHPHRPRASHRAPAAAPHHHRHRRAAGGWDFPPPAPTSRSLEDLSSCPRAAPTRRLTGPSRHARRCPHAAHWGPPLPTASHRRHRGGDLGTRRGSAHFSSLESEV
Chain of NR1/NR2D (NR1100) (Q62645 28-1323, other chains not shown): as above

Compound | Percentage change in kainate response (GluR3 AMPA receptor) | EC50 (NR1/NR2A (NR1100)) | Emax (NR1/NR2A (NR1100); [1]) | EC50 (NR1/NR2D (NR1100)) | Emax (NR1/NR2D (NR1100); [1]) | PS Emax, percentage change in kainate-induced current (GluR3 AMPA receptor; GluR3, 100 μM kainate) | inhibition of kainate response (GluR3 AMPA receptor; GluR3, 200 μM PS) | reduction of kainate Imax (GluR3 AMPA receptor; GluR3, PS 100 μM) | inhibition of the response to kainate (GluR3 AMPA receptor; GluR3, steroid 100 μM) | Percentage change in kainate response (GluR3 AMPA receptor; GluR3, steroid 100 μM, 100 μM kainate, −100 mV) | PS Emax (NR1011/NR2B) | PS nHill (NR1011/NR2B) | PS Emax (NR1100/NR2B) | PS nHill (NR1100/NR2B) | difference in mrc between NR1000/NR2A and NR1100/NR2A (NR1100/NR2A) | potentiation of NMDA responsive membrane current (NR1/NR2A; 100 μM PS, 80 μM NMDA, 10 μM glycine) | maximum potentiation (NR1/NR2A; PS 0.5 to 200 μM) | inhibition of NMDA-induced membrane currents (NR1/NR2D; 100 μM PS, 10 μM NMDA, 10 μM glycine) | maximum inhibition (NR1/NR2D; PS 0.5 to 200 μM) | maximum relative current (MRC) (NR1001/NR2A)
CC(=O)[C@H]1CC[C@H]2[C@@H]3CC[C@@H]4C[C@H](OS(=O)(=O)O)CC[C@]4(C)[C@H]3CC[C@]12C [3α5βS, 3α5β-pregnanolone sulfate] | −63 ± 8(4) % | 62 µM | -81 ± 5% | 14 µM | -98 ± 7% | – | – | – | – | – | – | – | – | – | – | – | – | – | – | –
pregnenolone sulfate [PS] | – | – | – | – | – | −90% | 81±3% | 71% | over 70% | −73 ± 3(8) % | 0.78 ± 0.14 | 1.29 ± 0.19 | 1.02 ± 0.10 | 1.42 ± 0.11 | 1.3 fold | 59±4% | 67±7% | 29±2% | 70±6% | 1.73 and 1.72
